For data set [1], the system named is C. glabrata. In words: Minimal fungicidal concentration (MFC) against C. glabrata. Type of data set: cell-based, Candida glabrata. The settings on record: Nakaseomyces glabratus; 24 h at 37° C. in PBS; less than 1% survival relative to DMSO control. The method, then:
(§1) Two-fold dilution series of the compounds were prepared in 50% DMSO. 5 μl of these series were added to 95 μl PBS buffer inoculated with 1/500 cells of an overnight culture of either C. albicans, C. glabrata or C. krusei (final DMSO conc 2%). 2% DMSO served as negative control. After 24 h incubation at 37° C. of these cultures with the antifungal compounds in PBS, the cell cultures were plated on YPD agar and colony forming units (CFUs) were determined after incubation of the plates for 2 days. MFC was determined as the minimal concentration of a compound resulting in less than 1% survival of the yeast culture relative to the DMSO control.

In data set [2] the test system is HepG2 cells. In words: Cellular cytostatic and/or cytotoxic effect on HepG2 cells. The format is cell-based. The method, then: Evaluation of the cytostatic and/or cytotoxic effect of compounds on certain specific eukaryotic cells is a standard procedure and well known to the person skilled in the art. The effect of a selection of compounds of the invention on the proliferation of HepG2 cells was measured.

Data set [3] concerns Fusarium oxysporum. The data set can be described thus: Minimal inhibitory concentration (MIC) against F. oxysporum. Type of data set: cell-based. To be noted: 24 h at 25° C. in ½ PDB, minimal concentration that inhibits growth. The method, then:
(§2) To determine the MIC and MFC of a compound against Aspergillus flavus, Fusarium oxysporum or F. culmorum, a 2-fold dilution series of the compounds of the invention was incubated with the corresponding spore suspension in ½ PDB (potato dextrose broth, Difco) (2×10^4 spores/ml). […] MFC was determined as the minimal concentration of a compound resulting in less than 1% survival of the fungal culture relative to the DMSO control.

In data set [4] the test system is A. fumigatus. The data set can be described thus: Minimal inhibitory concentration (MIC) against A. fumigatus. Type of data set: cell-based. The settings on record: Aspergillus fumigatus; minimal concentration that inhibits growth.
The test system of data set [5] is C. albicans SC5314. In words: Minimal fungicidal concentration (MFC) against C. albicans. The settings on record: Candida albicans, 24 h at 37° C. in PBS, less than 1% survival relative to DMSO control. The format is cell-based. The protocol: as §1
Data set [6] concerns Aspergillus flavus. The data set can be described thus: Minimal inhibitory concentration (MIC) against A. flavus. The settings on record: 24 h at 25° C. in ½ PDB, minimal concentration that inhibits growth. Type of data set: cell-based. The protocol:
as §2

Data set [7] concerns C. albicans SC5314. In words: C. elegans model for C. albicans infection. Type of data set: in vivo. The settings on record: different concentrations; FIG. 1. The protocol: The in vivo efficacy of the compounds was assessed in a C. elegans model for Candida infection as described by Breger et al., 2007 (Breger, J., et al. 2007. PLoS Pathog. 3:[…]). To this end, L4 larvae of a double mutant (glp-[…]) of C. elegans were used and fed for 4 h on C. albicans SC5314 agar plates (YPD agar plates on the surface inoculated with 100 μl of an overnight culture in YPD and incubated for 16 h at 37° C.). Worms were collected and washed with M9 buffer containing 3 g/L KH2PO4, 6 g/L Na2HPO4, 5 g/L NaCl, 1 mM MgSO4, 10 μg/mL cholesterol and 100 μg/mL Kanamycin. Forty-to-fifty worms were suspended in 1 mL in each well of 24-well microtiterplates, in the presence or absence (DMSO control) of the compounds of the invention (at different concentrations). Survival of the worms was monitored daily. The percentage survival of the worms in the presence or absence of antifungal compounds was calculated each day relative to the survival at day 0. Data are means of duplicate measurements and experiments were performed at least twice. As positive controls for efficacy testing, amphotericin B (10 μg/ml) and miconazole (10 μg/ml) in DMSO can be used.

The subject of data set [8] is C. albicans SC5314. The data set can be described thus: Mouse model for Candidiasis, fungal burden in the kidney. Type of data set: in vivo, BALB/c mice. The settings on record: 10 mg/kg intraperitonealy, once or twice a day; kidneys 5 days after infection; FIG. 2. The text has this:
An assay for in vivo efficacy measurement using mouse model for Candidiasis Fungal burden in the kidney of infected mice was used to evaluate the (prophylactic and/or therapeutic) activity of the compounds of the invention in murine models of infection by C. albicans, as described in the prior art (Tavares P M et al. Antimicrob Agents Chemother. 2008 December; 52(12):4522-5; Clemons K V, D A Stevens, J Antimicrob. Chemother. 2001; 47:183-186; Okawa Yet al., Biol Pharm Bull 2007, 30:1870-1873). In general, mice can be inoculated intravenously via lateral tail vein with 2×10^5 to […] C. albicans yeast cells suspended in saline. The compounds can be administered (for example intravenously or intraperitonealy or orally) before (for example 1 hour before) or after (for example 16 hours after) the challenge with C. albicans. After this first injection, four similar subsequent injections can be made with 24 h or other intervals. […] 100 μl-samples can be plated onto solid brain heart infusion (BHI) plates and C. albicans CFU (colony forming units) are counted after 2 days.
More specifically, the in vivo experiment was performed as following (in accordance with Tavares P M et al. Antimicrob Agents Chemother. 2008 December; 52(12):4522-5). […] 100 μl-samples were plated onto solid brain heart infusion (BHI) plates and C. albicans CFU (colony forming units) were counted after 2 days. […]

In brackets after ≈: the same amount, converted by molar mass.

For `CCN1CC(C)(C)OC(=O)C1CC(=O)Nc1ccc(C(C)C)cc1` (centres unmarked) [CPD-06, 2-(4-ethyl-6,6-dimethyl-2-oxomorpholin-3-yl)-N-(4-isopropylphenyl)acetamide], the MFC (in general, the smallest concentration meeting the test's criterion for killing the fungus) in data set [1] is 25 µg/mL (≈ 75.2 µM); in data set [5], 12.5 µg/mL (≈ 37.6 µM). The “LD30 48 h (lethal dose for 30% of the cells in culture)” value in data set [2] is above 25 µM. The MIC (usually the lowest concentration that inhibits growth of the organism) in data set [3] amounted to 50 µg/mL (≈ 150 µM); in data set [4] it was 1.6 µg/mL (≈ 4.81 µM); in data set [6], 12.5 µg/mL (≈ 37.6 µM). In data set [7], the “% survival of C. albicans infected C. elegans” value is “increase in survival”. In addition, the “activity against Candida albicans infection (CFU from kidneys)” value in data set [8] is given as “strong activity”.
